Data as given in patent US10294202B2, “Pyrrolidinones as herbicides” (FMC Corporation, priority 2013, dated 2019).

Tests used:
barnyardgrass = assay: Test B flooded paddy test; type: in vivo, Echinochloa crus-galli; details: 500 g ai/ha, Flood; scale of 0 to 100 where 0 is no effect and 100 is complete control
Method in brief: (§1)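 In-water application to pots flooded 3 cm deep, plants at 2-leaf stage. Held in greenhouse 13–15 days at constant flood depth. Scored 0–100 by eye against controls.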

oilseed rape = assay: Test C pre-/postemergence herbicide test; type: in vivo, Brassica napus
Method in brief: (§2)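 Visual rating, 0 (no effect) to 100 (complete control), versus untreated controls after 13 to 15 days in the greenhouse. Pre: seeds in loam/sand, sprayed at planting. Post: 1- to 4-leaf plants (2 to 18 cm) in peat-based mix. Compounds in non-phytotoxic solvent plus surfactant.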

wheat = assay: Test A pre-/postemergence herbicide test; type: in vivo, Triticum aestivum; details: Postemergence
Method in brief: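 Seeds sown in loam soil/sand blend received a preemergence directed soil spray of test chemical in non-phytotoxic solvent with surfactant; postemergence plants (2–10 cm, one- to two-leaf stage) were sprayed with the same formulation. After about 10 days in greenhouse, injury was rated visually versus untreated controls, 0 (no effect) to 100 (complete control).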

pigweed = assay: Test C pre-/postemergence herbicide test; type: in vivo, Amaranthus retroflexus
Method in brief: as §2

rice = assay: Test B flooded paddy test; type: in vivo, Oryza sativa; details: 500 g ai/ha, Flood; scale of 0 to 100 where 0 is no effect and 100 is complete control
Method in brief: as §1

blackgrass = assay: Test C pre-/postemergence herbicide test; type: in vivo, Alopecurus myosuroides
Method in brief: as §2

velvetleaf = assay: Test C pre-/postemergence herbicide test; type: in vivo, Abutilon theophrasti
Method in brief: as §2

johnsongrass = assay: Test C pre-/postemergence herbicide test; type: in vivo, Sorghum halepense
Method in brief: as §2

crabgrass, large = assay: Test C pre-/postemergence herbicide test; type: in vivo, Digitaria sanguinalis
Method in brief: as §2

sedge, umbrella = assay: Test B flooded paddy test; type: in vivo, Cyperus difformis; details: 500 g ai/ha, Flood; scale of 0 to 100 where 0 is no effect and 100 is complete control
Method in brief: as §1

wheat (winter wheat) = assay: Test C pre-/postemergence herbicide test; type: in vivo, Triticum aestivum
Method in brief: as §2

ragweed = assay: Test C pre-/postemergence herbicide test; type: in vivo, Ambrosia elatior
Method in brief: as §2

[1] = Postemergence, 31 g ai/ha, scale 0 to 100 (0 no effect, 100 complete control)
[2] = Postemergence, 62 g ai/ha, scale 0 (no effect) to 100 (complete control)
[3] = Postemergence, 125 g ai/ha, scale 0 to 100 (0 no effect, 100 complete control)
[4] = Postemergence, 250 g ai/ha, scale 0 to 100 (0 no effect, 100 complete control)
[5] = Preemergence, 31 g ai/ha, scale 0 to 100, 0 is no effect and 100 is complete control
[6] = Preemergence, 62 g ai/ha, scale 0 to 100 (0 no effect, 100 complete control)
[7] = Preemergence, 125 g ai/ha, scale 0 to 100 (0 no effect, 100 complete control)
[8] = 125 g ai/ha, visual rating on 0 to 100 scale (0 no effect, 100 complete control), approx. 10 days
[9] = 500 g ai/ha, 0 to 100 scale (0 no effect, 100 complete control)
[10] = Postemergence, 16 g ai/ha, scale 0 to 100 (0 no effect, 100 complete control)
[11] = Preemergence, 16 g ai/ha, scale 0 to 100

SMILES: CN1CC(c2ccc(F)c(F)c2)C(C(=O)Nc2ccccc2F)C1=O (stereo not shown) [Compound 302]
- Plant response rating, Barnyardgrass (barnyardgrass): 80
- Plant response rating, Oilseed Rape (oilseed rape; [1]): 0
- Plant response rating, Oilseed Rape (oilseed rape; [2]): 0
- Plant response rating, Oilseed Rape (oilseed rape; [3]): 40
- Plant response rating, Oilseed Rape (oilseed rape; [4]): 0
- Oilseed Rape plant response rating (oilseed rape; [5]): 0
- Oilseed Rape plant response rating (oilseed rape; [6]): 0
- Plant response rating, Oilseed Rape (oilseed rape; [7]): 0
- Plant response rating (scale of 0 to 100), Oilseed Rape (oilseed rape; Preemergence, 250 g ai/ha): 10
- Plant response rating, Wheat (wheat; [8]): 0
- Plant response rating, Wheat (wheat; [9]): 50
- Plant response rating, Pigweed (pigweed; [1]): 15
- Plant response rating, Pigweed (pigweed; [2]): 20
- Plant response rating, Pigweed (pigweed; [3]): 20
- Plant response rating, Pigweed (pigweed; [4]): 30
- Pigweed plant response rating (pigweed; [5]): 0
- Pigweed plant response rating (pigweed; [6]): 20
- Plant response rating, Pigweed (pigweed; [7]): 25
- Plant response rating (scale of 0 to 100), Pigweed (pigweed; Preemergence, 250 g ai/ha): 0
- Plant response rating, Rice (rice): 0
- Plant response rating, Blackgrass (blackgrass; [1]): 0
- Plant response rating, Blackgrass (blackgrass; [2]): 0
- Plant response rating, Blackgrass (blackgrass; [3]): 0
- Plant response rating, Blackgrass (blackgrass; [4]): 5
- Blackgrass plant response rating (blackgrass; [5]): 0
- Blackgrass plant response rating (blackgrass; [6]): 30
- Plant response rating, Blackgrass (blackgrass; [7]): 60
- Plant response rating (scale of 0 to 100), Blackgrass (blackgrass; Preemergence, 250 g ai/ha): 85
- Plant response rating, Velvetleaf (velvetleaf; [1]): 0
- Plant response rating, Velvetleaf (velvetleaf; [2]): 0
- Plant response rating, Velvetleaf (velvetleaf; [3]): 0
- Plant response rating, Velvetleaf (velvetleaf; [4]): 20
- Velvetleaf plant response rating (velvetleaf; [5]): 0
- Velvetleaf plant response rating (velvetleaf; [6]): 0
- Plant response rating, Velvetleaf (velvetleaf; [7]): 0
- Plant response rating (scale of 0 to 100), Velvetleaf (velvetleaf; Preemergence, 250 g ai/ha): 0
- Plant response rating, Johnsongrass (johnsongrass; [1]): 0
- Plant response rating, Johnsongrass (johnsongrass; [2]): 0
- Plant response rating, Johnsongrass (johnsongrass; [3]): 0
- Plant response rating, Johnsongrass (johnsongrass; [4]): 10
- Johnsongrass plant response rating (johnsongrass; [5]): 0
- Johnsongrass plant response rating (johnsongrass; [6]): 15
- Plant response rating, Johnsongrass (johnsongrass; [7]): 45
- Plant response rating (scale of 0 to 100), Johnsongrass (johnsongrass; Preemergence, 250 g ai/ha): 65
- Plant response rating, Crabgrass, Large (crabgrass, large; [1]): 0
- Plant response rating, Crabgrass, Large (crabgrass, large; [2]): 50
- Plant response rating, Crabgrass, Large (crabgrass, large; [3]): 70
- Plant response rating, Crabgrass, Large (crabgrass, large; [4]): 85
- Crabgrass, Large plant response rating (crabgrass, large; [5]): 95
- Crabgrass, Large plant response rating (crabgrass, large; [6]): 98
- Plant response rating, Crabgrass, Large (crabgrass, large; [7]): 100
- Plant response rating (scale of 0 to 100), Crabgrass, Large (crabgrass, large; Preemergence, 250 g ai/ha): 100
- Plant response rating, Sedge, Umbrella (sedge, umbrella): 0
- Plant response rating, Wheat (wheat (winter wheat); [1]): 0
- Plant response rating, Wheat (wheat (winter wheat); [2]): 0
- Plant response rating, Wheat (wheat (winter wheat); [3]): 0
- Plant response rating, Wheat (wheat (winter wheat); [4]): 0
- Wheat plant response rating (wheat (winter wheat); [5]): 0
- Wheat plant response rating (wheat (winter wheat); [6]): 5
- Plant response rating (scale of 0 to 100), Wheat (wheat (winter wheat); Preemergence, 250 g ai/ha): 30
- Plant response rating, Ragweed (ragweed; [1]): 10
- Plant response rating, Ragweed (ragweed; [2]): 20
- Plant response rating, Ragweed (ragweed; [3]): 20
- Plant response rating, Ragweed (ragweed; [4]): 55
- Ragweed plant response rating (ragweed; [5]): 35
- Ragweed plant response rating (ragweed; [6]): 5
- Plant response rating, Ragweed (ragweed; [7]): 5
- Plant response rating (scale of 0 to 100), Ragweed (ragweed; Preemergence, 250 g ai/ha): 10

SMILES: CN1CC(c2ccc(C(F)(F)F)cc2)C(C(=O)Nc2ccccc2F)C1=O (stereo not shown) [Compound 304]
- Plant response rating, Barnyardgrass (barnyardgrass): 80
- Plant response rating, Oilseed Rape (oilseed rape; [10]): 0
- Plant response rating, Oilseed Rape (oilseed rape; [1]): 0
- Plant response rating, Oilseed Rape (oilseed rape; [2]): 0
- Plant response rating, Oilseed Rape (oilseed rape; [3]): 0
- Oilseed Rape plant response rating (oilseed rape; [5]): 50
- Oilseed Rape plant response rating (oilseed rape; [6]): 55
- Plant response rating, Oilseed Rape (oilseed rape; [7]): 55
- Plant response rating, Oilseed Rape (oilseed rape; [11]): 30
- Plant response rating, Wheat (wheat; [8]): 40
- Plant response rating, Wheat (wheat; [9]): 60
- Plant response rating, Pigweed (pigweed; [10]): 25
- Plant response rating, Pigweed (pigweed; [1]): 35
- Plant response rating, Pigweed (pigweed; [2]): 55
- Plant response rating, Pigweed (pigweed; [3]): 55
- Pigweed plant response rating (pigweed; [5]): 55
- Pigweed plant response rating (pigweed; [6]): 75
- Plant response rating, Pigweed (pigweed; [7]): 85
- Plant response rating, Pigweed (pigweed; [11]): 40
- Plant response rating, Rice (rice): 35
- Plant response rating, Blackgrass (blackgrass; [10]): 0
- Plant response rating, Blackgrass (blackgrass; [1]): 0
- Plant response rating, Blackgrass (blackgrass; [2]): 0
- Plant response rating, Blackgrass (blackgrass; [3]): 0
- Blackgrass plant response rating (blackgrass; [5]): 35
- Blackgrass plant response rating (blackgrass; [6]): 60
- Plant response rating, Blackgrass (blackgrass; [7]): 70
- Plant response rating, Blackgrass (blackgrass; [11]): 30
- Plant response rating, Velvetleaf (velvetleaf; [10]): 0
- Plant response rating, Velvetleaf (velvetleaf; [1]): 5
- Plant response rating, Velvetleaf (velvetleaf; [2]): 15
- Plant response rating, Velvetleaf (velvetleaf; [3]): 15
- Velvetleaf plant response rating (velvetleaf; [5]): 20
- Velvetleaf plant response rating (velvetleaf; [6]): 35
- Plant response rating, Velvetleaf (velvetleaf; [7]): 50
- Plant response rating, Velvetleaf (velvetleaf; [11]): 0
- Plant response rating, Johnsongrass (johnsongrass; [10]): 0
- Plant response rating, Johnsongrass (johnsongrass; [1]): 0
- Plant response rating, Johnsongrass (johnsongrass; [2]): 0
- Plant response rating, Johnsongrass (johnsongrass; [3]): 0
- Johnsongrass plant response rating (johnsongrass; [5]): 0
- Johnsongrass plant response rating (johnsongrass; [6]): 35
- Plant response rating, Johnsongrass (johnsongrass; [7]): 35
- Plant response rating, Johnsongrass (johnsongrass; [11]): 0
- Plant response rating, Crabgrass, Large (crabgrass, large; [10]): 10
- Plant response rating, Crabgrass, Large (crabgrass, large; [1]): 10
- Plant response rating, Crabgrass, Large (crabgrass, large; [2]): 60
- Plant response rating, Crabgrass, Large (crabgrass, large; [3]): 80
- Crabgrass, Large plant response rating (crabgrass, large; [5]): 95
- Crabgrass, Large plant response rating (crabgrass, large; [6]): 95
- Plant response rating, Crabgrass, Large (crabgrass, large; [7]): 98
- Plant response rating, Crabgrass, Large (crabgrass, large; [11]): 90
- Plant response rating, Sedge, Umbrella (sedge, umbrella): 0
- Plant response rating, Wheat (wheat (winter wheat); [10]): 0
- Plant response rating, Wheat (wheat (winter wheat); [1]): 0
- Plant response rating, Wheat (wheat (winter wheat); [2]): 0
- Plant response rating, Wheat (wheat (winter wheat); [3]): 0
- Wheat plant response rating (wheat (winter wheat); [5]): 40
- Wheat plant response rating (wheat (winter wheat); [6]): 50
- Plant response rating, Wheat (wheat (winter wheat); [11]): 5
- Plant response rating, Ragweed (ragweed; [10]): 0
- Plant response rating, Ragweed (ragweed; [1]): 0
- Plant response rating, Ragweed (ragweed; [2]): 0
- Plant response rating, Ragweed (ragweed; [3]): 35
- Ragweed plant response rating (ragweed; [5]): 60
- Ragweed plant response rating (ragweed; [6]): 60
- Plant response rating, Ragweed (ragweed; [7]): 80
- Plant response rating, Ragweed (ragweed; [11]): 25
